Reference: ChEMBL document CHEMBL3797023, “Irregularities in enzyme assays: The case of macrophage migration inhibitory factor” (Bioorg Med Chem Lett, 2016)
In brackets after ≈: the same amount, converted by molar mass.

Assay: Aqueous solubility of compound at pH 6.5 by shake-flask method
Format: physicochemical
Settings: aqueous medium

In the case of `O=C(O)c1cccc(NC(=S)NC(=O)c2ccc(-c3ccccc3)cc2)c1`, the solubility thermodynamic is reported as < 1 µg/mL.

With `COc1ccc(C(=O)O)cc1NC(=S)NC(=O)c1cc2ccccc2o1` the solubility thermodynamic was < 5 µg/mL.

In the case of `Oc1cc2c(cc1C(c1ccc(C(F)(F)F)cc1)N1CCOCC1)OCO2` (configuration not stated), the solubility thermodynamic is reported as 27.6 µg/mL (≈ 72.4 µM).

For `Oc1ccc(-n2cc(-c3ccc4cc(OCCOCCN5CCOCC5)ccc4n3)nn2)cc1`, the solubility thermodynamic was 48.5 µg/mL (≈ 105 µM).

`Cc1ccc2oc(=O)n(Cc3cccc(O)c3)c2c1` showed a solubility thermodynamic of 21.9 µg/mL (≈ 85.8 µM).

With `COCCOc1ccc2nc(-c3cn(-c4ccc(O)cc4)nn3)ccc2c1` the solubility thermodynamic was 3.6 µg/mL (≈ 9.93 µM).

Molecule `COc1cc(-c2nc3ccccc3s2)cc(Br)c1OCC(=O)O` has a solubility thermodynamic of 6 µg/mL (≈ 15.2 µM).
